Experimental data from patent publication US20250289855A1, “ANTIMICROBIAL CaNCR PEPTIDE FOLDING VARIANTS” (Donald Danforth Plant Science Center, priority 2022, published 2025).
Where “and” joins values, the source holds several entries; their conditions need not be identical. Identical values can stand only once. Bridge positions count the residues as written; N and C are the ends. Ends that are not written are not given here.

Experiments:
Botrytis cinerea [1] = assay: Antifungal MIC, 96-well plate spectrophotometric / resazurin cell viability assay; type: cell-based; conditions: for SFM + 2 mM CaCl2 (antifungal activity/MIC): SFM supplemented with 2 mM CaCl2; for SM + 100 mM NaCl (antifungal activity/MIC): medium supplemented with 100 mM NaCl
Experimental: (§1) The fungal strain of Botrytis cinerea T-4 was cultured in 20% V8 growth medium. Alternaria alternata was grown on potato dextrose agar. Fungal spores were harvested by flooding the fungal growth plates with sterile water. The spore suspension was filtered through two layers of Miracloth, centrifuged at 13,600 rpm for 1 min, washed, and re-suspended in low-salt Synthetic Fungal Medium (SFM) (U.S. Pat. No. 6,916,970). The spore suspension was adjusted to equivalent spore density using a hemocytometer.
(§2) Antifungal activity of NCR13_PFV1 and NCR13_PFV2 was assessed at different concentrations using a 2-fold dilution series of each peptide. Antifungal activity of each peptide was determined spectrophotometrically using the 96-well plate assay (Sagaram et al., (2011) PLoS One. doi: 10.1371/journal.pone.0018550; Sagaram et al., (2013). PLoS One. 2013 Dec. 4; 8(12):e82485. doi: 10.1371/journal.pone.0082485). Forty-five microliters of each peptide at different concentrations was added to each well of the microtiter plate containing 45 μL of ˜10^5 spores/ml spore suspension. The quantitative fungal growth inhibition was determined by measuring the absorbance at 595 nm using a microplate reader (Tecan Infinite M200 ProTecan Systems Inc., San Jose, CA) after 48 h. The fungal cell viability was determined by the resazurin cell viability assay (Li et al., 2019, MPMI 32, 1649-1664; Velivelli et al., 2020, doi.org/10.1073/pnas.2003526117). After incubation of the pathogen/peptide mixture for 48 h, 1 of 0.1% resazurin solution was added to each well. After incubation of the mixture overnight, a change in the color of the resazurin dye from blue to pink or colorless indicated the presence of live fungal cells. The MIC for each peptide was the lowest concentration of each peptide at which no change in blue color occurred. Using this protocol, the MIC value of NCR13_PFV1 and NCR13_PFV2 was also determined in presence of 100 mM NaCl and 2 mM CaCl2).
The MIC of NCR13_PFV1 and NCR13_PFV2 against B. cinerea was determined (Table 3). MIC assays were carried out in 2×SFM. […] We therefore determined antifungal activity of NCR13_PFV1 and NCR13_PFV2 in SFM supplemented with 100 mM NaCl or 2 mM CaCl2) (Table 3).

Cercospora sojina [2] = assay: as above; type: cell-based; conditions: Synthetic Fungal Medium
Experimental: Cercospora sojina and Alternaria alternata conidia were harvested from a fully grown culture plate by gently dislodging the conidia with an L-spreader in the presence of 5 ml sterile water. To remove mycelial fragments, the spore suspension was filtered through three layers of miracloth and washed twice with sterile water at 13,000 rpm for 2 minutes. The spore concentration was adjusted to 1×10^5 spores/ml using a hemocytometer.
as §2, with “After incubation of the pathogen/peptide mixture for 48 h, 1 of 0.1% resazurin solution was added to each well. After incubation of the mixture overnight, a change in the color of the resazurin dye from blue to pink or colorless indicated the presence of live fungal cells. The MIC for each peptide was the lowest concentration of each peptide at which no change in blue color occurred. Using this protocol, the MIC value of NCR13_PFV1 and NCR13_PFV2 was also determined in presence of 100 mM NaCl and 2 mM CaCl2).” left out

Alternaria alternata [3] = assay: as above; type: cell-based; conditions: Synthetic Fungal Medium
Experimental: as §1
Cercospora sojina and Alternaria alternata conidia were harvested from a fully grown culture plate by gently dislodging the conidia with an L-spreader in the presence of 5 ml sterile water. […]
Antifungal activity of NCR13_PFV1 and NCR13_PFV2 was assessed at different concentrations using a 2-fold dilution series of each peptide. Antifungal activity of each peptide was determined spectrophotometrically using the 96-well plate assay (Sagaram et al., (2011) PLoS One. doi: 10.1371/journal.pone.0018550; Sagaram et al., (2013). PLoS One. 2013 Dec. 4; 8(12):e82485. doi: 10.1371/journal.pone.0082485). […] The quantitative fungal growth inhibition was determined by measuring the absorbance at 595 nm using a microplate reader (Tecan Infinite M200 ProTecan Systems Inc., San Jose, CA) after 48 h. […]

[4] = test system: Sclerotinia sclerotiorum 555; assay: In vitro antifungal activity, 24-well plate mycelial plug assay; type: cell-based; conditions: 2 dpi; for SFM MIC: Sclerotinia sclerotiorum 555
Experimental: Sclerotinia sclerotiorum (S. sclerotiorum) 555 fungal cultures were grown on potato dextrose agar (PDA) medium (Difco Laboratories Inc., Detroit, MI, USA) at room temperature.
The antifungal activity of NCR13_PFV1 against S. sclerotiorum 555 was measured in an in vitro assay using 24-wells plate assay. Mycelial plugs (1 mm in diameter) cut from the margin of two day-old actively growing colony were transferred from potato dextrose agar media to a series of wells containing 125 microliter (L) of 2×SFM medium (U.S. Pat. No. 6,916,970), with 125 μL of NCR13_PFV1 at varying concentrations of 3, 6, 12 and 24 μM. The plates were incubated at room temperature for 2 days prior to assessment. The mycelium diameter growth was measured 2 dpi using ImageJ software. NCR13 PFV1 peptide effects were calculated as a percentage from the difference between growth of the control and treated mycelium using the formula:
IG (%)=(Dc−Dt)/Dc×100; where IG is inhibition of growth, Dc is the mycelium diameter (mm) of the control and Dt is the mycelium diameter (mm) of the peptide-treated dishes.

Alternaria alternata [5] = assay: Microscopic observation of antifungal activity (light microscope, 20x); type: cell-based; conditions: A. alternata; peptide at 3 μM
Source text: (§3) The presence of germinating conidia/mycelial fragments was observed under a light microscope at 20× magnification. […] (FIG. 3A).

Cercospora sojina [6] = assay: as above; type: cell-based
Source text: as §3

B. cinerea = assay: Semi-in planta drop-inoculation assay, gray mold on detached N. benthamiana leaves; type: in vivo, Botrytis cinerea; conditions: for inhibition of gray mold disease symptoms: 3 μM
Source text: FIG. 4 depicts a drop-inoculation assay showing semi-in planta antifungal activity of NCR13_PFV1 and NCR13_PFV2 in detached N. benthemiana leaves.
In semi-in-planta studies, detached leaves of N. benthamiana, were used to check the potential of both NCR13_PFV1 and NCR13_PFV2 to reduce gray mold disease symptoms caused by B. cinerea (FIG. 4).

Botrytis cinerea [7] = assay: Tomato fruit infection assay, drop inoculation; type: in vivo; conditions: for visible fungal growth on tomato fruits: B. cinerea, 0.75 μM peptide applied 12 hpi, 3 dpi; for control of B. cinerea growth in tomato fruits: 0.75 μM peptide, 5 dpi
Experimental: Antifungal activity assays were performed on commercially available tomato fruits. A total of 36 tomato fruits (12 fruits per treatment) were washed with 0.01% bleach and rinsed three times with sterile distilled water. Carborundum Powder (Fisher Chemical, USA) was gently rubbed on the fruit surface to create microinjuries. The fruits were inoculated with 20 μl B. cinerea conidia (1×10^5 conidia ml-1) via drop inoculation. Conidia of B. cinerea were prepared as described above. Fruits were incubated in a Ziploc weather shield box containing moist paper towels to maintain high humidity after drop inoculation. 20 μl of peptide solution (0.75 μM of NCR13_PFV1 or NCR13_PFV2) was applied to the drop inoculated conidial suspension at 12 hours post-inoculation (hpi) and incubated for 5 days.

S. sclerotiorum 555 [8] = assay: Semi-in planta antifungal assay on detached soybean leaves; type: in vivo, Sclerotinia sclerotiorum; conditions: 2 dpi
Experimental: Representative pictures (under white light and with CropReporter based on the value of potential photosynthetic efficiency Fv/Fm) taken 48 h post-infection showing the antifungal activity of NCR13_PFV1.
(§4) For the semi-in planta antifungal assays, a 1 mm plug was taken from the leading edge of freshly cultured 2-day old fungal colony from PDA media and placed on approximately 3-4 weeks of age detached soybean leaves and pods (6 weeks of age). Then, 40 μL solution of NCR13_PFV1 at various concentrations or water was applied immediately on the plug and were allowed to incubate under high humidity for 2-3 days prior to assessment. The severity of disease lesions on each leaf was assessed using the CropReporter system as described in Li et al. Mol Plant Microbe Interact. 2019; 32:1649-1664. doi: 10.1094/MPMI-08-19-0224-R. Epub 2019 Oct. 28. PMID: 31425003. In addition, high-resolution fluorescence images were taken using CropReporter (PhenoVation, Wageningen, Netherlands).

S. sclerotiorum 555 [9] = assay: Semi-in planta antifungal assay on detached soybean pods; type: in vivo, Sclerotinia sclerotiorum; conditions: 3 dpi
Experimental: Representative pictures taken 72 h post-infection showing the antifungal activity of NCR13_PFV1.
as §4
Detached soybean pods from 6-week-old plants were infected with 1 mm plug of S. sclerotiorum 555 followed by the application of a drop of NCR13_PFV1 on the plug. […] We observed that NCR13_PFV1 confers fungicidal activity with 100% protection against S. sclerotiorum 555 at 3 dpi (FIG. 6).

| Substance | SFM + 2 mM CaCl2 (antifungal activity/MIC) (Botrytis cinerea [1]) | SFM MIC (Botrytis cinerea [1]; Synthetic Fungal Medium, 48 h, resazurin) | SM + 100 mM NaCl (antifungal activity/MIC) (Botrytis cinerea [1]) | SFM MIC (Cercospora sojina [2]) | SFM MIC (Alternaria alternata [3]) | SFM MIC [4] | conidial germination / mycelial growth under the microscope (Alternaria alternata [5]) | concentration at which C. sojina growth was inhibited (microscopy) (Cercospora sojina [6]) | fold higher inhibitory concentration versus the other folding variant (Cercospora sojina [6]; C. sojina) | inhibition of gray mold disease symptoms (B. cinerea) | visible fungal growth on tomato fruits (Botrytis cinerea [7]) | antifungal activity of NCR13_PFV1 relative to NCR13_PFV2 (from MIC) (Botrytis cinerea [1]) | S. sclerotiorum 555 mycelial growth in vitro ([4]; 3, 6, 12 and 24 μM) | activity against gray mold disease relative to NCR13_PFV2 (B. cinerea) | lesion size (S. sclerotiorum 555 [8]) | protection against S. sclerotiorum 555 (S. sclerotiorum 555 [9]) | lesion or decay development (S. sclerotiorum 555 [9]; compared to water control) | control of B. cinerea growth in tomato fruits (Botrytis cinerea [7]) | control of B. cinerea growth in tomato fruits (Botrytis cinerea [7]; listed as NCR13 PFV1) |
| --- | --- | --- | --- | --- | --- | --- | --- | --- | --- | --- | --- | --- | --- | --- | --- | --- | --- | --- | --- |
| NCR13_PFV2: NCR13-Ala peptide (SEQ ID NO: 2) expressed in Pichia pastoris, HPLC Peak2 folding variant (ATKPCQSDKDCKKFACRKPKVPKCINGFCKCVR; not fully specified; cysteine pairing not given here) | Inactive | 1.5 µM | Inactive | 1.5 µM | 3 µM and 3.0 µM | 24.0 µM | significant mycelial growth | 3 µM | ~17 | only partially inhibitory | visible fungal growth |  |  |  |  |  |  |  |  |
| NCR13_PFV1: NCR13-Ala peptide (SEQ ID NO: 2) expressed in Pichia pastoris, HPLC Peak1 folding variant (ATKPCQSDKDCKKFACRKPKVPKCINGFCKCVR; disulfide 11-29, 16-31, 5-24) | Inactive |  | Inactive |  | 0.75 µM | 6 µM and 6.0 µM | complete inhibition of conidial germination | 0.18 µM |  | completely inhibitory | no visible fungal growth | fourfold or greater | progressively reduced in size with increasing concentrations | two-fold higher activity | significantly decreased lesion sizes | 100% | no lesion or decay development | effective in controlling B. cinerea fungal growth | effective |
